For orientation: IC50 means the point on the concentration scale where inhibition reaches its midpoint.

From patent publication US10328077B2 (CELGENE CORPORATION, priority 2016, dated 2019) come the findings set out here.

One assay addresses human LSD-1 (Homo sapiens (Human), UniProt O60341). Briefly: In vitro enzyme inhibition assay LSD-1 (TR-FRET). Conditions: TR-FRET, H3K4me1-biotin labeled peptide. It is filed as biochemical. From the text:
This assay determines the ability of a test compound to inhibit LSD-1 demethylase activity.
The enzymatic assay of LSD-1 activity is based on Time Resolved-Fluorescence Resonance Energy Transfer (TR-FRET) detection.
On the technique in general: TR-FRET usually uses a lanthanide donor and a delayed reading to cut background.

Assay [1] deals with CD11b expression in THP-1 (AML) cells. Kind of assay: LSD-1 CD11b cellular assay (flow cytometry). To be noted: Homo sapiens, THP-1, 96 h, read-out: THP-1 IC50. (Flow cytometry measures light scatter and fluorescence of single cells or particles in a stream.)
Experimental: To analyze LSD-1 inhibitor efficacy in cells, a CD11b flow cytometry assay was performed. […] LSD-1 test compounds were serially diluted in DMSO. The dilutions were added to each well accordingly to a final concentration of 0.2% DMSO. The cells were incubated at 37 degrees Celsius in 5% CO2 for 4 days. 250 μL of each well was transferred to a well in a 96 well round bottom plate. The plate was centrifuged at 1200 rpm at 4 degrees Celsius in a Beckman Coulter Alegra 6KR centrifuge for 5 minutes. The media was removed leaving the cells at the bottom of the wells. The cells were washed in 100 μL cold HBSS (Hank's Balanced Salt Solution) plus 2% BSA (Bovine Serum Albumin) solution and centrifuged at 1200 rpm at 4 degrees Celsius for 5 minutes. The wash was removed. […] The cells were centrifuged and washed two times in 100 μl HBSS plus 2% BSA. After the final spin the cells were resuspended in 100 μL HBSS plus 2% BSA containing 1 μg/mL DAPI (4′,6-diamidino-2-phenylindole). The cells were then analyzed by flow cytometry in a BD FACSAria machine. Cells were analyzed for CD11b expression. The percent of CD11b expressing cells for each inhibitor concentration was used to determine an IC50 curve for each compound analyzed.

The structures appear in SMILES notation.

Turning to `COc1ccc(-c2c(-c3ccc(C#N)c(F)c3)nc(N3CC[C@@H](N)[C@@H](F)C3)n(C)c2=O)cc1` [Example 78, 4-[2-((4R, 3S)-4-amino-3-fluoro-piperidin-1-yl)-5-(4-methoxy-phenyl)-1-methyl-6-oxo-1,6-dihydro-pyrimidin-4-yl]-2-fluoro-benzonitrile], the IC50 (on human LSD-1; in assay [1]) was < 100 nM each time.

As for `COCc1ccc(-c2c(-c3ccc(C#N)c(F)c3)nc(N3CCC(N)CC3)n(C)c2=O)cc1` [Example 107, 4-[2-(4-aminopiperidin-1-yl)-5-[4-(methoxymethyl)phenyl]-1-methyl-6-oxopyrimidin-4-yl]-2-fluorobenzonitrile], the IC50 (against human LSD-1; in assay [1]) was < 100 nM throughout.

Take `COc1ccc(-c2c(-c3ccc(C#N)c(F)c3)nc(N(C)C[C@@H]3CCNC3)n(C)c2=O)cc1` (stereo in doubt) [Example 56, 2-fluoro-4-[5-(4-methoxy-phenyl)-1-methyl-2-(methyl-pyrrolidin-3-ylmethyl-amino)-6-oxo-1,6-dihydro-pyrimidin-4-yl]-benzonitrile]: the IC50 (at human LSD-1; in assay [1]) was < 100 nM in each case.

As for `COCCOc1ccc(-c2c(-c3ccc(C#N)c(F)c3)nc(N3CCC(N)CC3)n(C)c2=O)cc1` [Example 98, 4-[2-(4-aminopiperidin-1-yl)-5-[4-(2-methoxyethoxy)phenyl]-1-methyl-6-oxopyrimidin-4-yl]-2-fluorobenzonitrile], the IC50 (on human LSD-1; in assay [1]) was < 100 nM in each case.

Regarding `COc1ccc(-c2c(-c3ccc(C#N)c(F)c3)nc(N3CCC(N(C)C)CC3)n(C)c2=O)cn1` [Example 92, 4-[2-[4-(dimethylamino)piperidin-1-yl]-5-(6-methoxypyridin-3-yl)-1-methyl-6-oxopyrimidin-4-yl]-2-fluorobenzonitrile], the half-inhibitory concentration (IC50) (against human LSD-1; in assay [1]) was < 100 nM in each case.

`Cn1c(N2CCC(N)CC2)nc(-c2ccc(C#N)c(F)c2)c(-c2ccc(N)cc2)c1=O` [Example 89, 4-[5-(4-aminophenyl)-2-(4-aminopiperidin-1-yl)-1-methyl-6-oxopyrimidin-4-yl]-2-fluorobenzonitrile]: the IC50 (on human LSD-1; in assay [1]) was < 100 nM throughout.

As to `COc1ccc(-c2c(-c3ccc(C#N)c(F)c3)nc(NC[C@H]3CCNC3)n(C)c2=O)cc1` [Example 51, 2-fluoro-4-{5-(4-methoxy-phenyl)-1-methyl-6-oxo-2-[(3S)-(pyrrolidin-3-ylmethyl)-amino]-1,6-dihydro-pyrimidin-4-yl}-benzonitrile], the values for the IC50 (on human LSD-1; in assay [1]) were < 100 nM and 100 to 1000 nM, respectively.

For the compound `Cn1c(N2CCC(N)CC2)nc(-c2ccc(C#N)cc2)c(-c2ccc(OCCO)cc2)c1=O` [Example 97, 4-[2-(4-aminopiperidin-1-yl)-5-[4-(2-hydroxyethoxy)phenyl]-1-methyl-6-oxopyrimidin-4-yl]benzonitrile], the 50% inhibitory concentration (IC50) (on human LSD-1; in assay [1]) was < 100 nM throughout.

As to `COc1c(F)cc(-c2c(-c3ccc(C#N)cc3)nc(N3CCC(N)CC3)n(C)c2=O)cc1F` [Example 38, 4-[2-(4-aminopiperidyl)-5-(3,5-difluoro-4-methoxyphenyl)-1-methyl-6-oxohydropyrimidin-4-yl]benzenecarbonitrile], the IC50 (on human LSD-1; in assay [1]) was < 100 nM each time.

Consider `Cn1c(N2CCC(N)CC2)nc(-c2ccc(C#N)c(F)c2)c(-c2ccc(Cl)cc2)c1=O` [Example 106, 4-[2-(4-aminopiperidin-1-yl)-5-(4-chlorophenyl)-1-methyl-6-oxopyrimidin-4-yl]-2-fluorobenzonitrile], for which the IC50 (against human LSD-1; in assay [1]) was < 100 nM in each case.

As for `Cn1c(N2CCC(N)CC2)nc(-c2ccc(C#N)c(F)c2)c(-c2ccc(N3CCOCC3)nc2)c1=O` [Example 68, 4-[2-(4-amino-piperidin-1-yl)-1-methyl-5-(6-morpholin-4-yl-pyridin-3-yl)-6-oxo-1,6-dihydro-pyrimidin-4-yl]-2-fluoro-benzonitrile], the IC50 (on human LSD-1; in assay [1]) was < 100 nM each time.

As for `COc1ccc(-c2c(-c3ccc(C#N)c(F)c3)nc(N3CCC4(CCNC4)CC3)n(C)c2=O)cc1F` [Example 22, 4-[2-(2,8-diaza-spiro[4.5]dec-8-yl)-5-(3-fluoro-4-methoxy-phenyl)-1-methyl-6-oxo-1,6-dihydro-pyrimidin-4-yl]-2-fluorobenzonitrile], the IC50 (against human LSD-1; in assay [1]) was < 100 nM in each case.

`Cn1c(N2CCC(N)CC2)nc(-c2ccc(C#N)c(F)c2)c(-c2ccc(S(C)(=O)=O)cc2)c1=O` [Example 105, 4-[2-(4-aminopiperidin-1-yl)-1-methyl-5-(4-methylsulfonylphenyl)-6-oxopyrimidin-4-yl]-2-fluorobenzonitrile]: the IC50 (on human LSD-1; in assay [1]) was < 100 nM each time.

Take `CN(C)c1ccc(-c2c(-c3ccc(C#N)cc3)nc(N3CCCNCC3)n(C)c2=O)cn1` [Example 67, 4-[2-[1,4]diazepan-1-yl-5-(6-dimethylamino-pyridin-3-yl)-1-methyl-6-oxo-1,6-dihydro-pyrimidin-4-yl]-benzonitrile]: the IC50 (at human LSD-1; in assay [1]) was < 100 nM each time.

For the compound `Cn1c(N2CCC(N)CC2)nc(-c2ccc(C#N)c(F)c2)c(-c2ccc(CO)cc2)c1=O` [Example 100, 4-[2-(4-aminopiperidin-1-yl)-5-[4-(hydroxymethyl)phenyl]-1-methyl-6-oxopyrimidin-4-yl]-2-fluorobenzonitrile], the IC50 (on human LSD-1; in assay [1]) was < 100 nM in each case.

Take `CN(C)c1ncc(-c2c(-c3ccc(C#N)c(F)c3)nc(N3CCC(N)CC3)n(C)c2=O)cn1` [Example 49, 4-[2-(4-amino-piperidin-1-yl)-2′-dimethylamino-1-methyl-6-oxo-1,6-dihydro-[5,5′]bipyrimidinyl-4-yl]-2-fluoro-benzonitrile]: the IC50 (against human LSD-1; in assay [1]) was < 100 nM in each case.

Regarding `CCOc1ccc(-c2c(-c3ccc(C#N)c(F)c3)nc(N3CCC(N)CC3)n(C)c2=O)cc1` [Example 95, 4-[2-(4-aminopiperidin-1-yl)-5-(4-ethoxyphenyl)-1-methyl-6-oxopyrimidin-4-yl]-2-fluorobenzonitrile], the concentration for half-maximal inhibition (IC50) (against human LSD-1; in assay [1]) was < 100 nM each time.

`CN(C)C1CCN(c2nc(-c3ccc(C#N)c(F)c3)c(-c3ccc4cn(C)nc4c3)c(=O)n2C)CC1` [Example 80, 4-[2-(4-dimethylamino-piperidin-1-yl)-1-methyl-5-(2-methyl-2H-indazol-6-yl)-6-oxo-1,6-dihydro-pyrimidin-4-yl]-2-fluoro-benzonitrile]: the IC50 (against human LSD-1; in assay [1]) was < 100 nM each time.

For `Cn1c(N2CCC(N)CC2)nc(-c2ccc(C#N)c(F)c2)c(-c2cc(F)cc(F)c2)c1=O` [Example 103, 4-[2-(4-aminopiperidin-1-yl)-5-(3,5-difluorophenyl)-1-methyl-6-oxopyrimidin-4-yl]-2-fluorobenzonitrile], the IC50 (at human LSD-1; in assay [1]) was < 100 nM in each case.

Turning to `CNC1CCN(c2nc(-c3ccc(C#N)c(F)c3)c(-c3ccc(OC)cc3)c(=O)n2C)CC1` [Example 11, 2-fluoro-4-[5-(4-methoxy-phenyl)-1-methyl-2-(4-methylamino-piperidin-1-yl)-6-oxo-1,6-dihydro-pyrimidin-4-yl]-benzonitrile], the IC50 (against human LSD-1; in assay [1]) was < 100 nM throughout.

On to `COc1ccc(-c2c(-c3ccc(C#N)c(F)c3)nc(N3CC(N)C3)n(C)c2=O)cc1` [Example 64, 4-[2-(3-amino-azetidin-1-yl)-5-(4-methoxy-phenyl)-1-methyl-6-oxo-1,6-dihydro-pyrimidin-4-yl]-2-fluoro-benzonitrile], for which the figures for the IC50 (against human LSD-1; in assay [1]) were < 100 nM and 100 to 1000 nM, respectively.

In the case of `Cn1c(N2CCC(N)CC2)nc(-c2ccc(C#N)c(F)c2)c(-c2ccc3ccn(C)c3c2)c1=O` [Example 76, 4-[2-(4-amino-piperidin-1-yl)-1-methyl-5-(1-methyl-1H-indol-6-yl)-6-oxo-1,6-dihydro-pyrimidin-4-yl]-2-fluoro-benzonitrile], the IC50 (at human LSD-1; in assay [1]) was < 100 nM throughout.

Take `COc1ccc(-c2c(-c3ccc(C#N)c(F)c3)nc(N3CCC[C@H](N)C3)n(C)c2=O)cc1` [Example 31, 4-[2-((3S)-3-amino-piperidin-1-yl)-5-(4-methoxy-phenyl)-1-methyl-6-oxo-1,6-dihydro-pyrimidin-4-yl]-2-fluoro-benzonitrile]: the concentration for half-maximal inhibition (IC50) (on human LSD-1; in assay [1]) was < 100 nM in each case.

As to `COc1ccc(-c2c(-c3ccc(C#N)c(F)c3)nc(N3CCC[C@@H](N)C3)n(C)c2=O)cc1F` [Example 25, 4-[2-((3R)-3-aminopiperidyl)-5-(3-fluoro-4-methoxyphenyl)-1-methyl-6-oxohydropyrimidin-4-yl]-2-fluorobenzenecarbonitrile], the IC50 (against human LSD-1; in assay [1]) was < 100 nM throughout.

For the compound `COc1ccc(-c2c(-c3ccc(C#N)c(F)c3)nc(NC[C@@H]3CCNC3)n(C)c2=O)cc1` [Example 52, 2-fluoro-4-{5-(4-methoxy-phenyl)-1-methyl-6-oxo-2-[(3R)-(pyrrolidin-3-ylmethyl)-amino]-1,6-dihydro-pyrimidin-4-yl}-benzonitrile], the IC50 against human LSD-1 is < 100 nM; in assay [1], 100 to 1000 nM.

In the case of `CNC1CCN(c2nc(-c3ccc(C#N)c(F)c3)c(-c3ccc(OC)nc3)c(=O)n2C)CC1` [Example 58, 2-fluoro-4-[5-(6-methoxy-pyridin-3-yl)-1-methyl-2-(4-methylamino-piperidin-1-yl)-6-oxo-1,6-dihydro-pyrimidin-4-yl]-benzonitrile], the IC50 (at human LSD-1; in assay [1]) was < 100 nM each time.

For the compound `CN(C)C1CCN(c2nc(-c3ccc(C#N)c(F)c3)c(-c3ccc4cn[nH]c4c3)c(=O)n2C)CC1` [Example 84, 4-[2-(4-dimethylamino-piperidin-1-yl)-5-(2H-indazol-6-yl)-1-methyl-6-oxo-1,6-dihydro-pyrimidin-4-yl]-2-fluoro-benzonitrile], the IC50 (on human LSD-1; in assay [1]) was < 100 nM each time.
